# In patent US20260022114A1, “N-(5-SUBSTITUTED-[(1,3,4-THIADIAZOLYL) OR (1,3-THIAZOLYL)](SUBSTITUTED)CARBOXAMIDE COMPOUNDS, PHARMACEUTICAL COMPOSITIONS, AND METHODS OF PREPARING THE AMIDE COMPOUNDS AND OF THEIR USE” (Repare Therapeutics Inc., priority 2022, published 2026):
# Experiments:
# [1] = target: PolQ ATPase enzyme (1-894) (Homo sapiens (Human), UniProt O75417); experiment: Polθ ATPase enzymatic assay (0.5 nM enzyme concentration), ADP-Glo; format: biochemical; conditions: 0.5 nM PolQ ATPase enzyme (1-894); average IC50
# Summary of the method: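 Human PolQ ATPase domain (1-894), 0.5 nM, preincubated 15 min at rt with 10-point inhibitor series in 50 mM Tris pH 7.5, 10% glycerol, 5 mM DTT, 10 mM MgCl2, 0.1 mg/ml BSA.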
# [2] = target: T1, CYP3A4 (Homo sapiens (Human), UniProt P08684); experiment: Time-dependent inhibition (TDI), IC50 shift +/-NADPH, human liver microsomes; format: in vitro ADME; conditions: IC50 −NADPH divided by IC50 +NADPH
# Protocol: Test compound or positive control inhibitors (CYP2C9: Tienilic acid; CYP2D6: paroxetine; CYP3A4: mifepristone) were dissolved in DMSO and a semi-log dilution (up to 50.0 μM) was prepared to 2 incubation plates and normalized for a final DMSO content of 0.5%. Human liver microsomes were diluted at 1 mg/mL with 100 mM potassium phosphate buffer pH 7.4 (1 mM MgCl2) and added to both incubation plates. After pre-incubation at 37° C., the reaction was started with the addition of NADPH (+NADPH condition) or with water (−NADPH condition). Plates were incubated for 30 min and 8 μL were transferred to a second incubation plate containing 72 μL of 1 mM NADPH, 20 μM diclofenac (CYP2C9), 20 μM dextromethorphan (CYP2D6) and 10 μM midazolam (CYP3A4) in 100 mM potassium phosphate buffer pH 7.4 (1 mM MgCl2). Plates were incubated for 10 min and the reaction was stopped by the addition of cold acetonitrile containing internal standard (1:1 v/v). […] Metabolite area ratio (4-OH-diclofenac, dextrorphan and 1-OH-midazolam) versus internal standard area ratio was used as the quantitative signal. Data were analyzed using the plot log of concentration (x axis) versus the percentage of inhibition (y axis) and IC50. Hill Slope and R^2 were determined. The IC50 shift was then calculated by dividing the IC50-NADPH condition by the IC50 obtained in the +NADPH condition.
# [3] = Liver microsomal stability assay; format: in vitro ADME; conditions: pH 7.4; human liver microsomes, 1 μM compound
# Protocol: Liver microsomes were thawed on ice prior to use. The incubation mixtures were prepared in 96-well plates and contained test compound or control (1 μM), liver microsomes (0.5 mg of microsomal protein/mL), MgCl2 (5 mM), phosphate buffer (100 mM, pH 7.4), 0.01% DMSO and 1% acetonitrile. A T=0 aliquot was withdrawn after 10 min pre-incubation at 37° C. on a shaker. Reactions were initiated by the addition of NADPH (final concentration of 1 mM) and the plate was kept on a shaker at 37° C., further samples were withdrawn at 5, 15, 30, and 60 minutes. At each timepoint, the reactions were immediately terminated by adding of ice-cold acetonitrile containing internal standard to the withdrawn sample. The extracted samples were centrifuged for 10 minutes at 3200 rpm to pellet the precipitated microsomal protein, and the supernatant was combined 1:1 with water and analyzed by LC-MS/MS. Using the T=0 peak area ratio as 100%, the percentage of parent compound remaining was calculated. For each compound, the In percentage remaining versus incubation time was plotted and the slope of this linear regression (−k) was converted to an in vitro T1/2 value and CLint using the equations below.
# [4] = target: T1, CYP3A4; experiment: Reversible CYP inhibition in human liver microsomes (midazolam); format: in vitro ADME
# Protocol: A seven-point semi-log dilution of each test compound (up to 30 μM) or positive control inhibitors for CYP2C9 (up to 1000 nM sulphenazole), CYP2D6 (up to 500 nM quinidine) and CYP3A4 (up to 250 nM ketoconazole) were dissolved in DMSO and added to the incubation plate using a Tecan 300 (normalized for 0.3% DMSO content). Final reaction conditions were: human liver microsomes (0.1 mg/mL), potassium phosphate buffer 100 mM pH 7.4, 1 mM magnesium chloride, 5 μM diclofenac, 5 μM dextromethorphan and 2.5 μM midazolam. After a pre-incubation at 37° C. The reaction was started with the addition of NADPH solution at the final concentration of 1 mM and carried out at 37° C. for 5 minutes. The reaction was stopped by the addition of 1 volume of cold acetonitrile with internal standard (labetalol) to the incubation plate. The incubation plate was centrifuged at 3000 rpm for 10 minutes to precipitate proteins, and the supernatant was analyzed by LC-MS/MS. Metabolite area ratio (4-OH-diclofenac, dextrorphan and 1-OH-midazolam) versus ISTD area ratio was used as the quantitative signal. Data were analyzed using the plot log of concentration (x-axis) versus the percentage of inhibition (y axis) and the IC50, Hill Slope and R^2 were determined.
# [5] = target: PXR nuclear receptor (Homo sapiens (Human), UniProt O75469); experiment: PXR activation luciferase reporter assay; format: cell-based; conditions: 0.03-10 μM test compound; for PXR activation (% Max activity): percentage of the response of Rifampicin at 10 μM; for fold induction at 24 h: versus vehicle-treated cells, read-out: PXR activation (Max fold induction)
# Protocol: An expression vector harboring a full-length PXR nuclear receptor plus the appropriate enhancers and promoters linked to the luciferase reporter gene were integrated into the tumor cells. Tumor cells transfected with the species-specific nuclear receptor and the corresponding response elements were seeded in a 96-well plate. Twenty-four hours after seeding, the cells were treated with six distinct concentrations (0.03-10 μM) of the test compound. The cells were then returned to the incubator for an additional 24 h. After this incubation period, the number of viable cells/well were determined using Promega's Cell Titer Fluor cytotoxicity assay. At the end of the assay, Promega's ONE-Glo was added to assess the receptor activation by monitoring reporter gene activity, and by comparing the results to vehicle-treated cells. Activation data were normalized to the number of viable cells/well. Results are expressed as a percentage of the response given by Rifampicin, the positive control, at a 10 μM dose.
# Sequence of PXR nuclear receptor (O75469 whole entry): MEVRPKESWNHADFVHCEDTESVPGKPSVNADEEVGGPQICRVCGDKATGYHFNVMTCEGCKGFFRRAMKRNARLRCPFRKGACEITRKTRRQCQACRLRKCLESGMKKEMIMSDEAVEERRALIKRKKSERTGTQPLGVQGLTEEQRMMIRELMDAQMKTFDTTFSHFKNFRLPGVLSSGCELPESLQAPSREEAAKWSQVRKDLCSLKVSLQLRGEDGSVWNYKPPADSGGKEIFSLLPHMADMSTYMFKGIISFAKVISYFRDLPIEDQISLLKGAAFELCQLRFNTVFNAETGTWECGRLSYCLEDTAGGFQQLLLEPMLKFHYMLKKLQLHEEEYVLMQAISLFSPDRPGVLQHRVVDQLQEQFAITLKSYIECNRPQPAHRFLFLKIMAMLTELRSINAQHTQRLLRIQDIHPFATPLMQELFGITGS
# Sequence of PolQ ATPase enzyme (1-894) (O75417 1-894): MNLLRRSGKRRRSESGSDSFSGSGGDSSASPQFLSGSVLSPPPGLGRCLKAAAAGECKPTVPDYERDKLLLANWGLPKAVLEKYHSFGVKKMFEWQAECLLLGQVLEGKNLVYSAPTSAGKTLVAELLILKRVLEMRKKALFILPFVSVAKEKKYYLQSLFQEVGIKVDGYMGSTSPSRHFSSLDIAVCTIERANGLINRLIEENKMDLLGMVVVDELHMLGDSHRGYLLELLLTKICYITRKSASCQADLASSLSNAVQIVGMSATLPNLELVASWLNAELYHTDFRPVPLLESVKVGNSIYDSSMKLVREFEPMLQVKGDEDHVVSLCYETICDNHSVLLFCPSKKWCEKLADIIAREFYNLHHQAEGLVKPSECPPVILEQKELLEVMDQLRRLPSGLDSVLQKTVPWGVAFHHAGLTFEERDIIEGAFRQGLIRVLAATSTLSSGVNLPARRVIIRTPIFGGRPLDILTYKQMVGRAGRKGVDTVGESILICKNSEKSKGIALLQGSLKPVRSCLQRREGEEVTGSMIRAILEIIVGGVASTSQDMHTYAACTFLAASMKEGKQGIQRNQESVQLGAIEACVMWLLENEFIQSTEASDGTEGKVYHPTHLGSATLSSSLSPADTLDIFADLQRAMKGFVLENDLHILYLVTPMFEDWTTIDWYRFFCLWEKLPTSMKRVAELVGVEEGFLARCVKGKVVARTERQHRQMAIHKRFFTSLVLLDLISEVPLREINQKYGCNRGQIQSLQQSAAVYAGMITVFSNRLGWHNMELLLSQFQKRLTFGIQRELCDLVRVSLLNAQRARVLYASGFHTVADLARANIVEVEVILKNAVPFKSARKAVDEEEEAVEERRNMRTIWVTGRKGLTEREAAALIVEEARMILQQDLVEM
# T1 sequence (P08684 whole entry): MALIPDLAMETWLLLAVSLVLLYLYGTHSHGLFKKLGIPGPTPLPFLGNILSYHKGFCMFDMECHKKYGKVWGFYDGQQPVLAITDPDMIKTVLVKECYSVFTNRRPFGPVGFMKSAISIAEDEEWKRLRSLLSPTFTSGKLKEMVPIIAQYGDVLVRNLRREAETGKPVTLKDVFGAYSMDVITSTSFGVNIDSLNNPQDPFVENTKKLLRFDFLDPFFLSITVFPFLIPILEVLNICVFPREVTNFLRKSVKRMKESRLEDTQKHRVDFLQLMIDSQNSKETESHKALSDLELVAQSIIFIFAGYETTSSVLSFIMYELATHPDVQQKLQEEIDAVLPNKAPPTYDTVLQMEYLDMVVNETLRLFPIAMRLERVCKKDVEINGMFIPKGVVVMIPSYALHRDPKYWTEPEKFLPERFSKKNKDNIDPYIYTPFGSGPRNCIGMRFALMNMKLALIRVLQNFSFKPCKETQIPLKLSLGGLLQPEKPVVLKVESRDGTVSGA
IC50 [1] [nM],Compound,also measured
3.5,COc1ccc(F)cc1-c1cnccc1C(=O)Nc1nnc(C#Cc2ccc(C#N)cc2)s1 [Compound 473],Time-dependent CYP3A4 inhibition-shift after 30 min with NADPH [2]: 1x; microsomal CLint at 1 μM [3]: 46.4 µL/min/mg; IC50 [4]: 1110 nM; PXR activation (% Max activity) [5]: 2.0%; fold induction at 24 h [5]: 1.3
–,COc1cnc(Cl)cc1-c1cnccc1C(=O)Nc1nnc(C#CC2CC2)s1,Time-dependent CYP3A4 inhibition-shift after 30 min with NADPH [2]: 1x; microsomal CLint at 1 μM [3]: < 7.7 µL/min/mg; IC50 [4]: > 30000 nM; PXR activation (% Max activity) [5]: 5.0%; fold induction at 24 h [5]: 1.8
< 0.25,COc1cnc(C(F)F)cc1-c1cc(C#CCN2CCCC2=O)ncc1C(=O)Nc1nnc(C#CC2CC2)s1 [Compound 550],–
25,COc1cnc(C(F)F)cc1-c1cc(-n2ccc(C)cc2=O)ncc1C(=O)Nc1nnc(COC(C)(C)C)s1 [Compound 578],–
4,COc1cnc(C(F)F)cc1-c1cc(C#CCN2CCOCC2)ncc1C(=O)Nc1nnc([C@H]2C[C@@H]2C)s1 (racemic) [Compound 606],–
0.32,C#C[C@H]1C[C@@H]1c1nnc(NC(=O)c2cnc(-n3cccc(C(F)(F)F)c3=O)cc2-c2cc(C(F)F)ncc2OC)s1 [Compound 575],–
3.2,COc1cnc(C(F)F)cc1-c1cc(-c2ccc(C)cc2)ncc1C(=O)Nc1nnc(C#CC2CC2)s1 [Compound 513],–
1,COc1cnc(C(F)F)cc1-c1cc(C#CC2CCN(C)CC2)ncc1C(=O)Nc1nnc(C#CC2CC2)s1 [Compound 555],–
0.36,COc1cnc(Cl)cc1-c1cnccc1C(=O)Nc1nnc(C2C[C@H]2c2ccc(OC(F)F)cc2)s1 (some centres unmarked) [Compound 62],–
2.7,COc1cnc(C(F)F)cc1-c1cc(N2CCN(CC(F)(F)F)C3(CC3)C2=O)ncc1C(=O)Nc1nnc(C#CC2CC2)s1 [Compound 515],–
1.8,COc1cnc(C(F)F)cc1-c1cc(C#CC2CCCN(C)C2)ncc1C(=O)Nc1nnc(C#CC2CC2)s1 (racemic) [Compound 556],–
0.85,COc1cnc(C(F)F)cc1-c1cc(-n2ccc(OC3CCN(C)C3)cc2=O)ncc1C(=O)Nc1nnc(C#CC2CC2)s1 (racemic) [Compound 612],–
1,"C#C[C@H]1CC1c1nnc(NC(=O)c2cnc(-n3ccc(OC)cc3=O)cc2-c2cc(C(F)F)ncc2OC)s1 (single isomer, unassigned) [Compound 629]",–
< 0.25,COc1cnc(C(F)F)cc1-c1cc(C#CCN(C)C)ncc1C(=O)Nc1nnc(C#CC2CC2)s1 [Compound 628],–
< 0.25,"C#C[C@H]1CC1c1nnc(NC(=O)c2cnc(-n3ccc(C)cc3=O)cc2-c2cc(Cl)ncc2OC)s1 (single isomer, unassigned) [Compound 590]",–
0.35,COc1cnc(C(F)F)cc1-c1cc(-n2ccc(N3CC4(COC4)C3)cc2=O)ncc1C(=O)Nc1nnc(C#CC2CC2)s1 [Compound 613],–
0.59,COc1cnc(C(F)F)cc1-c1cc(C#CCN2C[C@@H](C)O[C@@H](C)C2)ncc1C(=O)Nc1nnc(C#CC2CC2)s1 [Compound 529],–
< 0.25,COc1cnc(C(F)F)cc1-c1cc(-n2ccc(N3CCOCC3)cc2=O)ncc1C(=O)Nc1nnc(C#CC2CC2)s1 [Compound 522],–
2.7,COc1cnc(C(F)F)cc1-c1cc(C#CCn2ccnc2)ncc1C(=O)Nc1nnc(C#CC2CC2)s1 [Compound 601],–
8.5,COc1cnc(C(F)F)cc1-c1cc(C#CCC(C)(C)O)ncc1C(=O)Nc1nnc([C@@H]2C[C@H]2c2ccn(C)n2)s1 [Compound 630],–
1.5,COc1cnc(C(F)F)cc1-c1cc(Cn2ccccc2=O)ncc1C(=O)Nc1nnc(C#CC2CC2)s1 [Compound 507],–
< 0.25,"COc1cnc(C(F)F)cc1-c1cc(-n2ccc(C)cc2=O)ncc1C(=O)Nc1nnc([C@H]2C[C@@H]2c2ccn(C)n2)s1 (racemic) [Compound 583, 2″-(difluoromethyl)-5″-methoxy-4-methyl-N-(5-((1S,2S)-2-(1-methyl-1H-pyrazol-3-yl)cyclopropyl)-1,3,4-thiadiazol-2-yl)-2-oxo-2H-[1,2′:4′,4″-terpyridine]-5′-carboxamide]",–
0.39,COc1cnc(C(F)F)cc1-c1cc(N2CCN(C(=O)C(C)(C)C)C3(CC3)C2=O)ncc1C(=O)Nc1nnc(C#CC2CC2)s1 [Compound 516],–
0.75,"C#C[C@H]1CC1c1nnc(NC(=O)c2cnc(N3CCOC4(CC4)C3=O)cc2-c2cc(C(F)F)ncc2OC)s1 (single isomer, unassigned) [Compound 588]",–
0.47,C#C[C@@]1(F)CC1c1nnc(NC(=O)c2cnc(-n3ccc(C)cc3=O)cc2-c2cc(C(F)F)ncc2OC)s1 (mixture of isomers) [Compound 639],–
< 0.25,COc1cnc(C(F)F)cc1-c1cc(N2CC3CC3CC2=O)ncc1C(=O)Nc1nnc(C#CC2CC2)s1 (racemic) [Compound 388],–
